From patent publication US8476255B2, “Histone deacetylase inhibitors” (Orchid Chemicals & Pharmaceuticals Limited, priority 2007, dated 2013)

How the values were obtained:
NCIH460 (lung) cells = assay: Anti-cancer screen (MTT), NCIH460; format: cell-based; settings: Homo sapiens, NCI-H460, NCIH460, 48 hours, MTT; for GI50: read-out: Cell growth inhibition NCIH460 (Lung) GI50; for LC50: read-out: Cell growth inhibition NCIH460 (Lung) LC50; for IC (TGI): read-out: Cell growth inhibition NCIH460 (Lung) TGI
Procedure, shortened: (§1)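 Five-point MTT cytotoxicity test with 48 h compound exposure (final 0.01–100 μM, triplicate) in DMEM with 10% FBS, using a T0 viability plate and SAHA as reference standard.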

HCT 116 (colon) cells = assay: Anti-cancer screen (MTT), HCT 116; format: cell-based; settings: Homo sapiens, HCT-116, HCT116, 48 hours, MTT; for GI50: read-out: Cell growth inhibition HCT116 (Colon) GI50; for CC50: read-out: Cell growth inhibition HCT116 (Colon) LC50; for IC (TGI): read-out: Cell growth inhibition HCT116 (Colon) TGI
Procedure, shortened: as §1

U251 (glioma) cells = assay: Anti-cancer screen (MTT), U251; format: cell-based; settings: Homo sapiens, U-251, U251, 48 hours, MTT; for GI50: read-out: Cell growth inhibition U251 (Glioma) GI50; for LC50 (concentration giving 50% net cell kill relative to the time-zero cell count): read-out: Cell growth inhibition U251 (Glioma) LC50; for IC (TGI): read-out: Cell growth inhibition U251 (Glioma) TGI
Procedure, shortened: as §1

[1] = test system: NCIH460, HCT116 and U251 cells; assay: Anti-cancer screen, mean GI50 over cell lines; format: cell-based; settings: mean over cell lines; read-out: Cell growth inhibition Mean GI50
Procedure, shortened: as §1

[2] = test system: HDAC (Mouse Liver Extract); assay: HDAC inhibition assay using Boc-Lys(Ac)-AMC substrate; format: biochemical; settings: mouse liver enzyme
Procedure, shortened: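 Released AMC measured at 360 nm excitation, 460 nm emission after 15-30 min trypsin development at 37° C. Preceding deacetylation: mouse liver extract with acetylated-lysine AMC substrate, 30 min at 37° C after 5-min preincubation; blanks were buffer alone and substrate alone.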

Row | SMILES | GI50 (NCIH460 (lung) cells) [µM] | LC50 (NCIH460 (lung) cells) [µM] | IC (TGI) (NCIH460 (lung) cells) [µM] | GI50 (HCT 116 (colon) cells) [µM] | CC50 (HCT 116 (colon) cells) [µM] | IC (TGI) (HCT 116 (colon) cells) [µM] | GI50 (U251 (glioma) cells) [µM] | LC50 (concentration giving 50% net cell kill relative to the time-zero cell count) (U251 (glioma) cells) [µM] | IC (TGI) (U251 (glioma) cells) [µM] | GI50 [1] [µM] | HDAC inhibition % (1 μM) [2] [%] | HDAC inhibition % (10 μM) [2] [%] | IC50 [2] [µM]
1 | CSc1ccc(/C=C(/C(=O)NCc2ccc(C(=O)NO)cc2)c2ccsc2)cc1 [Compound 59, 4-((2-(Thiophen-3-yl)-3-(4-methylthiophenyl)acrylamido)methyl)-N-hydroxybenzamide] | 2.3 | 30 | 7 | 3 | 60 | 15 | 1.5 | 65 | 5.5 | 2.3 | 76.6 | 96.3 | 0.03
2 | CSc1ccc(/C=C(/C(=O)NCc2ccc(C(=O)Nc3ccccc3N)cc2)c2ccc(F)cc2)cc1 [Compound 6, N-(2-Aminophenyl)-4-((3-(4-methylthiophenyl)-2-(4-fluorophenyl)acrylamido)methyl)benzamide] | 8.8 | 90 | 47 | 4.8 | 95.8 | 46 | < 0.01 | 83.2 | 22 | 4.5 | 4.2 | 25.8 | –
3 | COc1ccc(/C=C(/C(=O)NCc2ccc(C(=O)Nc3ccccc3N)cc2)c2ccccc2)cc1 [Compound 2, N-(2-Aminophenyl)-4-((3-(4-methoxyphenyl)-2-(phenyl)acrylamido)methyl)benzamide] | 2.9 | > 100 | 8.2 | 4.4 | > 100 | 9.4 | 7.6 | > 100 | 39 | 5 | 2.3 | 6.8 | –
4 | CSc1ccc(/C=C(/C(=O)NCc2ccc(C(=O)Nc3ccccc3N)cc2)c2ccc(C)cc2)cc1 [Compound 25, N-(2-Aminophenyl)-4-((3-(4-methylthiophenyl)-2-(4-methylphenyl)acrylamido)methyl)benzamide] | 19 | 100 | 58 | 7.5 | 90 | 48 | 6.5 | 89 | 37 | 11 | 63.8 | 68.1 | –
5 | COc1cc(/C=C(/C(=O)NCc2ccc(C(=O)Nc3ccccc3N)cc2)c2ccc(F)cc2)cc(OC)c1OC [Compound 8, N-(2-Aminophenyl)-4-((3-(3,4,5-trimethoxyphenyl)-2-(4-fluorophenyl)acrylamido)methyl)benzamide] | 89 | > 100 | > 100 | 24.5 | > 100 | 82.5 | 67 | > 100 | 84.5 | 60.2 | 21.4 | 26.4 | –
6 | COc1cc(/C=C(/C(=O)NCc2ccc(C(=O)NO)cc2)c2ccc(F)cc2)ccc1F [Compound 60, 4-((2-(4-Fluorophenyl)-3-(4-fluoro-3-methoxyphenyl)acrylamido)methyl)-N-hydroxybenzamide] | 25 | 80 | 50 | 10 | 81 | 50 | 17 | 99 | 38 | 17.3 | 66.6 | 95.0 | –
7 | COc1ccc(/C=C(/C(=O)NCc2ccc(C(=O)NO)cc2)c2ccc(C)cc2)cc1OC [Compound 62, 4-((2-(4-Methylphenyl)-3-(3,4-dimethoxyphenyl)acrylamido)methyl)-N-hydroxybenzamide] | > 100 | > 100 | > 100 | 90 | > 100 | > 100 | > 100 | > 100 | > 100 | 90 | 83.2 | 100.0 | –
8 | Nc1ccccc1NC(=O)c1ccc(CNC(=O)/C(=C/c2ccc(F)cc2)c2ccccc2)cc1 [Compound 10, N-(2-Aminophenyl)-4-((3-(4-fluorophenyl)-2-(phenyl)acrylamido)methyl)benzamide] | 19.5 | 85 | 49 | 3.9 | 56 | 9 | 27 | 92 | 57 | 16.8 | 14.5 | 32.1 | –
9 | COC(=O)c1ccc(/C=C(/C(=O)NCc2ccc(C(=O)Nc3ccccc3N)cc2)c2cccc(Cl)c2)cc1 [Compound 33, N-(2-Aminophenyl)-4-((3-(4-carbmethoxyphenyl)-2-(3-chlorophenyl)acrylamido)methyl)benzamide] | 0.2 | 60 | 11 | 0.02 | 80 | 2 | 0.2 | 4.5 | 0.7 | 0.1 | 34.4 | 35.0 | 7.8
10 | Nc1ccccc1NC(=O)c1ccc(CNC(=O)/C(=C/c2ccccc2)c2ccccc2)cc1 [Compound 12, N-(2-Aminophenyl)-4-((3-phenyl-2-phenylacrylamido)methyl)benzamide] | 32 | 87 | 60 | 5.2 | 76.2 | 37 | 18 | 82 | 48.5 | 18.4 | 13.6 | 29.8 | –
11 | O=C(NCc1ccc(C(=O)NO)cc1)/C(=C/c1c(F)cc(F)cc1F)c1ccc(F)cc1 [Compound 54, 4-((2-(4-Fluorophenyl)-3-(2,4,6-trifluorophenyl)acrylamido)methyl)-N-hydroxybenzamide] | 8 | 68 | 24 | 4.4 | 59 | 20 | 19 | 64 | 25 | 10.5 | 67.5 | 89.8 | –
12 | O=C(CCCCCNC(=O)/C(=C/c1c(F)cc(F)cc1F)c1ccc(F)cc1)NO [Compound 89, 6-(2-(4-Fluorophenyl)-3-(2,4,6-trifluorophenyl)acrylamido)-N-hydroxy hexanamide] | 3 | 45 | 13 | 4 | 83 | 10 | 4 | 81 | 6.7 | 3.7 | 64.9 | 97.6 | 0.03
13 | O=C(CCCCCNC(=O)NC(=O)/C(=C/c1ccc(F)c(F)c1)c1ccc(F)cc1)NO [Compound 100] | 40 | 96 | 70 | 8.8 | 82 | 46 | 28 | 84 | 62 | 25.6 | 77.1 | 96.3 | –
14 | O=C(CCCCCCNC(=O)/C(=C\c1ccccc1)c1ccccc1)NO [Compound 85, (2Z)-7-(2,3-Diphenylacrylamido)-N-hydroxy heptanamide] | 3.3 | 75 | 25 | 3.1 | > 100 | 23 | 4.8 | 80 | 27 | 3.7 | 79.3 | 95.8 | 0.38
